Results: patent US11306081B2, “Phenylacetamides as inhibitors of rock” (BRISTOL-MYERS SQUIBB COMPANY, priority 2017, dated 2022)

Target: ROCK2 (Homo sapiens (Human), UniProt O75116)
Assay: ROCK assay (LABCHIP 3000 peptide phosphorylation assay)
Format: biochemical
Conditions: 5 μM ATP, 1.5 μM peptide substrate, dose-response
Procedure: The effectiveness of compounds of the present invention as ROCK inhibitors can be determined in a 30 μL assay containing 20 mM HEPES, pH 7.5, 20 mM MgCl2, 0.015% Brij-35, 4 mM DTT, 5 μM ATP and 1.5 μM peptide substrate (FITC-AHA-AKRRRLSSLRA-OH) (SEQ ID No. 1). Compounds were dissolved in DMSO so that the final concentration of DMSO was <2%, and the reaction was initiated with Rho kinase variants. After incubation, the reaction was terminated by the addition of EDTA and the phosphorylated and non-phosphorylated peptides separated using a LABCHIP® 3000 Reader (Caliper Life Sciences). […] Compounds were tested in dose-response format, and the inhibition of kinase activity was calculated at each concentration of compound. The inhibition data were fit using a curve-fitting program to determine the IC50; i.e., the concentration of compound required to inhibit 50% of kinase activity.

Sequence of ROCK2 (O75116 whole entry, species assumed): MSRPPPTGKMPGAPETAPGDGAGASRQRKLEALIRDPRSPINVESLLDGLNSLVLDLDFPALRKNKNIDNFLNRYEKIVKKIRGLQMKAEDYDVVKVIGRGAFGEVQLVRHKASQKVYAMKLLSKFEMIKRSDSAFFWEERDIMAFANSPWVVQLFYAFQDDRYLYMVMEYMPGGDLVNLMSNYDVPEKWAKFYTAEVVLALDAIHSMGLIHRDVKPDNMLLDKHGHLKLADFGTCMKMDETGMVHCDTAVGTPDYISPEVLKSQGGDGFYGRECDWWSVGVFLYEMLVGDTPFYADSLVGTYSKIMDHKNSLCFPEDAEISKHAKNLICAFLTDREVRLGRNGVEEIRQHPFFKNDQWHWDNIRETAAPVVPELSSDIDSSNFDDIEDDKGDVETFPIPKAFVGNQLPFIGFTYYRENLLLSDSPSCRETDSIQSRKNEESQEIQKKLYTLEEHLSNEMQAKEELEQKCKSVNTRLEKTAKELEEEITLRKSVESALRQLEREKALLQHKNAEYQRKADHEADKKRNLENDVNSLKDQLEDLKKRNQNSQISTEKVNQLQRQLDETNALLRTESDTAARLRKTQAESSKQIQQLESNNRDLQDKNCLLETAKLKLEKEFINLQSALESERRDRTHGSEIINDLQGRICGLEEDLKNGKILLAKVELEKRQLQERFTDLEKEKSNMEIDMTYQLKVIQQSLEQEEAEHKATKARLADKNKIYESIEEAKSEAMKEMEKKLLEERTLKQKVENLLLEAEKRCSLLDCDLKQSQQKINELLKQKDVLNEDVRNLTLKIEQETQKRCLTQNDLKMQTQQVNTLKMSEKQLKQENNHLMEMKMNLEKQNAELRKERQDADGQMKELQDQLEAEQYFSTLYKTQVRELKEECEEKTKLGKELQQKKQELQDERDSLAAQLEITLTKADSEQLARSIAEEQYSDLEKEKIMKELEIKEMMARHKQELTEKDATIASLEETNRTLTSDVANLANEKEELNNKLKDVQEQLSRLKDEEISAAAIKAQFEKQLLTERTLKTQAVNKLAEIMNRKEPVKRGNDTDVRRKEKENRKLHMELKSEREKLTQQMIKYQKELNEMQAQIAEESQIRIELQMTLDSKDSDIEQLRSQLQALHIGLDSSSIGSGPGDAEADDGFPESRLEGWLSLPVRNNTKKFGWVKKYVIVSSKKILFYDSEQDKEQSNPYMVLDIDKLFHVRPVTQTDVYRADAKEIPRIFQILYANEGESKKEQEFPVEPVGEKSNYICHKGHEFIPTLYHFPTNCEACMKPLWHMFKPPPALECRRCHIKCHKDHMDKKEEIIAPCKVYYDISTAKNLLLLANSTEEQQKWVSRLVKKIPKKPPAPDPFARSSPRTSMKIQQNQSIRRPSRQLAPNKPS

SMILES	IC50
NC(=O)c1cccnc1Oc1ccc(CC(=O)Nc2nc3cc(-c4c[nH]nc4C(F)(F)F)ccc3s2)cc1F [Example 032, 2-(2-fluoro-4-(2-oxo-2-((5-(3-(trifluoromethyl)-1H-pyrazol-4-yl)benzo[d]thiazol-2-yl)amino)ethyl)phenoxy) nicotinamide]	89 nM
Cn1cc(-c2ccc3nc(NC(=O)Cc4ccc(Oc5ncccc5C(N)=O)c(F)c4)cn3c2)cn1 [Example 036, 2-(2-fluoro-4-(2-((6-(1-methyl-1H-pyrazol-4-yl)imidazo[1,2-a]pyridin-2-yl)amino)-2-oxoethyl)phenoxy)nico-tinamide]	48 nM
Cn1cc(-c2ccc3nc(NC(=O)Cc4ccc(Oc5ncccc5C(N)=O)c(Cl)c4)cn3c2)cn1 [Example 037, 2-(2-chloro-4-(2-((6-(1-methyl-1H-pyrazol-4-yl)imidazo[1,2-a]pyridin-2-yl)amino)-2-oxoethyl)phenoxy)nico-tinamide]	34 nM
Cc1sc(NC(=O)Cc2ccc(Oc3ncccc3C(N)=O)c(F)c2)nc1-c1cnc(N2CCN(C)CC2)nc1 [Example 039, 2-(2-fluoro-4-(2-((5-methyl-4-(2-(4-methylpiperazin-1-yl)pyrimidin-5-yl)thiazol-2-yl)amino)-2-oxoethyl)phenoxy)nico-tinamide]	183 nM
COc1ncc(-c2nc(NC(=O)Cc3ccc(Oc4ncccc4C(N)=O)c(F)c3)sc2C)cn1 [Example 040, 2-(2-fluoro-4-(2-((4-(2-methoxypyrimidin-5-yl)-5-methylthiazol-2-yl)amino)-2-oxoethyl)phenoxy)nico-tinamide]	99 nM
Cc1sc(NC(=O)Cc2ccc(Oc3ncccc3C(N)=O)c(F)c2)nc1-c1cncnc1 [Example 041, 2-(2-fluoro-4-(2-((5-methyl-4-(pyrimidin-5-yl)thiazol-2-yl)amino)-2-oxoethyl)phenoxy)nico-tinamide]	175 nM
Cc1sc(NC(=O)Cc2ccc(Oc3ncccc3C(N)=O)c(F)c2)nc1-c1cnc(C(C)(C)O)nc1 [Example 042, 2-(2-fluoro-4-(2-((4-(2-(2-hydroxypropan-2-yl)pyrimidin-5-yl)-5-methylthiazol-2-yl)amino)-2-oxoethyl)phenoxy)nico-tinamide]	471 nM
COc1cccc(-c2nc(NC(=O)Cc3ccc(Oc4ncccc4C(N)=O)c(F)c3)sc2C)n1 [Example 043, 2-(2-fluoro-4-(2-((4-(6-methoxypyridin-2-yl)-5-methylthiazol-2-yl)amino)-2-oxoethyl)phenoxy)nico-tinamide]	69.6 nM
Cc1sc(NC(=O)Cc2ccc(Oc3ncccc3C(N)=O)c(F)c2)nc1-c1ccc(S(C)(=O)=O)cc1 [Example 047, 2-(2-fluoro-4-(2-((5-methyl-4-(4-(methylsulfonyl)phenyl)thiazol-2-yl)amino)-2-oxoethyl)phenoxy)nico-tinamide]	84 nM
Cc1sc(NC(=O)Cc2ccc(Oc3ncccc3C(N)=O)c(F)c2)nc1-c1ccc(S(=O)(=O)C(C)C)cc1 [Example 048, 2-(2-fluoro-4-(2-((4-(4-(isopropylsulfonyl)phe-nyl)-5-methylthiazol-2-yl)amino)-2-oxoethyl)phenoxy)nico-tinamide]	112 nM
NC(=O)c1cccnc1Oc1ccc(CC(=O)Nc2nc3ccccc3s2)cc1 [Example 049, 2-(4-(2-(benzo[d]thiazol-2-ylamino)-2-oxoethyl)phenoxy) nicotinamide]	194 nM

Compounds with a lower IC50, results first:

IC50	SMILES
30 nM	Cc1cc(-c2ccc3sc(NC(=O)Cc4ccc(Oc5ncccc5C(N)=O)c(F)c4)nc3c2)n(C)n1 [Example 028, 2-(4-(2-((5-(1,3-dimethyl-1H-pyrazol-5-yl)benzo[d]thiazol-2-yl)amino)-2-oxoethyl)-2-fluorophenoxy)nicotin-amide]
30 nM	Cn1cc(-c2ccc3c(c2)nc(NC(=O)Cc2ccc(Oc4ncccc4C(N)=O)c(F)c2)n3CC(F)(F)F)cn1 [Example 038, 2-(2-fluoro-4-(2-((5-(1-methyl-1H-pyrazol-4-yl)-1-(2,2,2-trifluoroethyl)-1H-benzo[d]imidazol-2-yl)amino)-2-oxoethyl)phenoxy)nico-tinamide]
24 nM	Cc1sc(NC(=O)Cc2ccc(Oc3ncccc3C(N)=O)c(F)c2)nc1-c1ccncc1 [Example 044, 2-(2-fluoro-4-(2-((5-methyl-4-(pyridin-4-yl)thiazol-2-yl)amino)-2-oxoethyl)phenoxy)nico-tinamide]
22 nM	Cc1sc(NC(=O)Cc2ccc(Oc3ncccc3C(N)=O)c(F)c2)nc1C1CC1 [Example 046, 2-(4-(2-((4-cyclopropyl-5-methylthiazol-2-yl)amino)-2-oxoethyl)-2-fluorophenoxy)nicotin-amide]
21 nM	Cc1sc(NC(=O)Cc2ccc(Oc3ncccc3C(N)=O)c(F)c2)nc1-c1cccc(C#N)n1 [Example 045, 2-(4-(2-((4-(6-cyanopyridin-2-yl)-5-methylthiazol-2-yl)amino)-2-oxoethyl)-2-fluorophenoxy)nicotin-amide]
10 nM	Cn1cc(-c2ccc3sc(NC(=O)Cc4ccc(Oc5ncccc5C(N)=O)c(F)c4)nc3c2)cn1 [Example 035, 2-(2-fluoro-4-(2-((5-(1-methyl-1H-pyrazol-4-yl)benzo[d]thiazol-2-yl)amino)-2-oxoethyl)phenoxy)nico-tinamide]
9 nM	NC(=O)c1cccnc1Oc1ccc(CC(=O)Nc2nc3cc(-c4cnn(C(F)F)c4)ccc3s2)cc1F [Example 029, 2-(4-(2-((5-(1-(difluoromethyl)-1H-pyrazol-4-yl)benzo[d]thiazol-2-yl)amino)-2-oxoethyl)-2-fluorophenoxy)nicotin-amide]
8 nM	Cn1cc(-c2ccc3sc(NC(=O)Cc4ccc(Oc5ncccc5C(N)=O)c(F)c4)nc3c2)c(C2CC2)n1 [Example 026, 2-(4-(2-((5-(3-cyclopropyl-1-methyl-1H-pyrazol-4-yl)benzo[d]thiazol-2-yl)amino)-2-oxoethyl)-2-fluorophenoxy)nicotin-amide]
8 nM	Cn1nccc1-c1ccc2sc(NC(=O)Cc3ccc(Oc4ncccc4C(N)=O)c(F)c3)nc2c1 [Example 030, 2-(2-fluoro-4-(2-((5-(1-methyl-1H-pyrazol-5-yl)benzo[d]thiazol-2-yl)amino)-2-oxoethyl)phenoxy)nico-tinamide]
8 nM	NC(=O)c1cccnc1Oc1ccc(CC(=O)Nc2nc3cc(-c4cn[nH]c4)ccc3s2)cc1F [Example 031, 2-(4-(2-((5-(1H-pyrazol-4-yl)benzo[d]thiazol-2-yl)amino)-2-oxoethyl)-2-fluorophenoxy)nicotin-amide]
8 nM	[2H]C([2H])([2H])n1ccc(-c2ccc3sc(NC(=O)Cc4ccc(Oc5ncccc5C(N)=O)c(F)c4)nc3c2)n1 [Example 034, 2-(2-fluoro-4-(2-((5-(1-(methyl-d3)-1H-pyrazol-3-yl)benzo[d]thiazol-2-yl)amino)-2-oxoethyl)phenoxy)nico-tinamide]
7 nM	Cn1ccc(-c2ccc3sc(NC(=O)Cc4ccc(Oc5ncccc5C(N)=O)c(F)c4)nc3c2)n1 [Example 033, 2-(2-fluoro-4-(2-((5-(1-methyl-1H-pyrazol-3-yl)benzo[d]thiazol-2-yl)amino)-2-oxoethyl)phenoxy)nico-tinamide]
5 nM	Cc1nn(C)c(-c2ccc3sc(NC(=O)Cc4ccc(Oc5ncccc5C(N)=O)c(F)c4)nc3c2)c1C [Example 027, 2-(2-fluoro-4-(2-oxo-2-((5-(1,3,4-trimethyl-1H-pyrazol-5-yl)benzo[d]thiazol-2-yl)amino)ethyl)phenoxy) nicotinamide]
